Measured values from the NIST ThermoML archive (doi:10.1021/je049721u).
Numbers after ± are expanded uncertainties.

Assay: mn = molality of the nth substance listed, in mol/kg
Settings: 101.3 kPa, Liquid; for speed of sound: Pulse-echo method

[O-][Cl+3]([O-])([O-])[O-].[O-][Cl+3]([O-])([O-])[O-].[Zn+2] [zinc perchlorate] + CN(C)C=O
Settings	mass density, 283.15 K [kg/m3]	mass density, 293.15 K [kg/m3]	mass density, 298.15 K [kg/m3]	mass density, 303.15 K [kg/m3]	mass density, 313.15 K [kg/m3]	mass density, 323.15 K [kg/m3]	mass density, 333.15 K [kg/m3]	speed of sound, 298.15 K [m/s]
m1 = 0.03554	965.795 ± 0.58	956.309 ± 0.59	951.555 ± 0.59	946.8 ± 0.59	937.255 ± 0.6	927.66 ± 0.6	918.015 ± 0.61	1459.9 ± 1.4
m1 = 0.04966	968.825 ± 0.58	959.347 ± 0.58	954.6 ± 0.59	949.85 ± 0.59	940.315 ± 0.59	930.737 ± 0.6	921.108 ± 0.61	–
m1 = 0.05952	970.955 ± 0.58	961.484 ± 0.58	956.74 ± 0.59	951.99 ± 0.59	942.46 ± 0.59	932.889 ± 0.6	923.268 ± 0.61	1461.7 ± 1.4
m1 = 0.06946	973.095 ± 0.58	963.626 ± 0.58	958.885 ± 0.58	954.139 ± 0.59	944.619 ± 0.59	935.058 ± 0.6	925.449 ± 0.6	1462.5 ± 1.5
m1 = 0.1039	980.554 ± 0.58	971.105 ± 0.58	966.376 ± 0.58	961.642 ± 0.58	952.143 ± 0.59	942.607 ± 0.59	933.036 ± 0.6	1465 ± 1.5
m1 = 0.1369	987.781 ± 0.58	978.348 ± 0.58	973.626 ± 0.58	968.9 ± 0.58	959.426 ± 0.59	949.918 ± 0.59	940.371 ± 0.6	1467.5 ± 1.5
m1 = 0.17	995.118 ± 0.58	985.7 ± 0.58	980.987 ± 0.58	976.267 ± 0.58	966.813 ± 0.58	957.333 ± 0.59	947.816 ± 0.59	1469.6 ± 1.5
m1 = 0.2038	1002.65 ± 0.58	993.242 ± 0.58	988.537 ± 0.58	983.828 ± 0.58	974.394 ± 0.58	964.934 ± 0.59	955.438 ± 0.59	1472.1 ± 1.5
m1 = 0.2374	1010.26 ± 0.59	1000.87 ± 0.58	996.17 ± 0.58	991.474 ± 0.58	982.063 ± 0.58	972.635 ± 0.58	963.178 ± 0.59	1474.7 ± 1.5
m1 = 0.2701	1017.77 ± 0.6	1008.39 ± 0.59	1003.7 ± 0.58	999.008 ± 0.58	989.616 ± 0.58	980.208 ± 0.58	970.777 ± 0.59	1477.2 ± 1.5
m1 = 0.3002	1024.72 ± 0.61	1015.35 ± 0.6	1010.66 ± 0.59	1005.98 ± 0.59	996.605 ± 0.58	987.212 ± 0.58	977.794 ± 0.59	1479.7 ± 1.5
m1 = 0.3314	1032.04 ± 0.61	1022.68 ± 0.6	1018.01 ± 0.6	1013.33 ± 0.59	1003.97 ± 0.59	994.605 ± 0.58	985.215 ± 0.58	1482.1 ± 1.5

[Cu+2].[O-][Cl+3]([O-])([O-])[O-].[O-][Cl+3]([O-])([O-])[O-] [copper perchlorate] + CN(C)C=O
Settings	mass density, 283.15 K [kg/m3]	mass density, 293.15 K [kg/m3]	mass density, 298.15 K [kg/m3]	mass density, 303.15 K [kg/m3]	mass density, 313.15 K [kg/m3]	mass density, 323.15 K [kg/m3]	mass density, 333.15 K [kg/m3]	speed of sound, 298.15 K [m/s]
m1 = 0.0362	965.762 ± 0.58	956.275 ± 0.58	951.52 ± 0.59	946.762 ± 0.59	937.212 ± 0.59	927.62 ± 0.6	917.988 ± 0.61	1460 ± 1.4
m1 = 0.04897	968.496 ± 0.58	959.009 ± 0.58	954.258 ± 0.59	949.505 ± 0.59	939.972 ± 0.59	930.338 ± 0.6	920.756 ± 0.61	–
m1 = 0.0604	970.938 ± 0.58	961.462 ± 0.58	956.715 ± 0.58	951.971 ± 0.59	942.44 ± 0.59	932.866 ± 0.6	923.242 ± 0.6	1461.7 ± 1.4
m1 = 0.07815	974.714 ± 0.58	965.248 ± 0.58	960.507 ± 0.58	955.758 ± 0.59	946.236 ± 0.59	936.666 ± 0.6	927.06 ± 0.6	1463.2 ± 1.5
m1 = 0.106	980.752 ± 0.58	971.295 ± 0.58	966.549 ± 0.58	961.812 ± 0.58	952.315 ± 0.59	942.78 ± 0.59	933.198 ± 0.6	1465.3 ± 1.5
m1 = 0.139	987.892 ± 0.58	978.445 ± 0.58	973.718 ± 0.58	968.984 ± 0.58	959.5 ± 0.59	949.979 ± 0.59	940.416 ± 0.6	1467.8 ± 1.5
m1 = 0.1737	995.495 ± 0.58	986.058 ± 0.58	981.338 ± 0.58	976.613 ± 0.58	967.148 ± 0.58	957.653 ± 0.59	948.12 ± 0.59	1470.3 ± 1.5
m1 = 0.2084	1003.16 ± 0.58	993.739 ± 0.58	989.024 ± 0.58	984.309 ± 0.58	974.859 ± 0.58	965.385 ± 0.59	955.869 ± 0.59	1473.2 ± 1.5
m1 = 0.2431	1010.94 ± 0.59	1001.53 ± 0.58	996.825 ± 0.58	992.116 ± 0.58	982.686 ± 0.58	973.233 ± 0.58	963.75 ± 0.59	1475.7 ± 1.5
m1 = 0.2746	1018.01 ± 0.6	1008.7 ± 0.59	1003.95 ± 0.58	999.2 ± 0.58	989.83 ± 0.58	980.454 ± 0.58	970.858 ± 0.59	1478.3 ± 1.5
m1 = 0.3065	1025.38 ± 0.61	1015.99 ± 0.6	1011.3 ± 0.59	1006.6 ± 0.59	997.202 ± 0.58	987.786 ± 0.58	978.345 ± 0.58	1480.8 ± 1.5
m1 = 0.3377	1032.62 ± 0.61	1023.24 ± 0.6	1018.54 ± 0.6	1013.85 ± 0.59	1004.46 ± 0.58	995.056 ± 0.58	985.638 ± 0.58	1483.8 ± 1.5

[Co+2].[O-][Cl+3]([O-])([O-])[O-].[O-][Cl+3]([O-])([O-])[O-] [cobalt(II) perchlorate] + CN(C)C=O
Settings	mass density, 283.15 K [kg/m3]	mass density, 293.15 K [kg/m3]	mass density, 298.15 K [kg/m3]	mass density, 303.15 K [kg/m3]	mass density, 313.15 K [kg/m3]	mass density, 323.15 K [kg/m3]	mass density, 333.15 K [kg/m3]	speed of sound, 298.15 K [m/s]
m1 = 0.02921	964.275 ± 0.58	954.785 ± 0.58	950.026 ± 0.59	945.273 ± 0.59	935.722 ± 0.6	926.127 ± 0.6	916.489 ± 0.61	1459.6 ± 1.4
m1 = 0.03591	965.673 ± 0.58	956.19 ± 0.58	951.432 ± 0.59	946.682 ± 0.59	937.135 ± 0.59	927.546 ± 0.6	917.907 ± 0.61	–
m1 = 0.05081	968.79 ± 0.58	959.315 ± 0.58	954.565 ± 0.58	949.82 ± 0.59	940.29 ± 0.59	930.711 ± 0.6	921.09 ± 0.6	1461.4 ± 1.4
m1 = 0.05902	970.508 ± 0.58	961.035 ± 0.58	956.29 ± 0.58	951.55 ± 0.59	942.021 ± 0.59	932.457 ± 0.6	922.843 ± 0.6	1462.1 ± 1.4
m1 = 0.08863	976.733 ± 0.58	967.283 ± 0.58	962.549 ± 0.58	957.809 ± 0.58	948.308 ± 0.59	938.77 ± 0.59	929.181 ± 0.6	1464.2 ± 1.5
m1 = 0.1167	982.692 ± 0.58	973.255 ± 0.58	968.53 ± 0.58	963.801 ± 0.58	954.319 ± 0.59	944.808 ± 0.59	935.256 ± 0.6	1466.5 ± 1.5
m1 = 0.1455	988.838 ± 0.57	979.414 ± 0.58	974.697 ± 0.58	969.98 ± 0.58	960.52 ± 0.58	951.034 ± 0.59	941.509 ± 0.59	1468.5 ± 1.5
m1 = 0.1735	994.845 ± 0.57	985.454 ± 0.58	980.747 ± 0.58	976.035 ± 0.58	966.596 ± 0.58	957.13 ± 0.59	947.626 ± 0.59	1471 ± 1.5
m1 = 0.2007	1000.8 ± 0.57	991.403 ± 0.58	986.7 ± 0.58	981.997 ± 0.58	972.578 ± 0.58	963.135 ± 0.58	953.661 ± 0.59	1472.8 ± 1.5
m1 = 0.2305	1007.33 ± 0.58	997.94 ± 0.58	993.248 ± 0.58	988.552 ± 0.58	979.153 ± 0.58	969.73 ± 0.58	960.286 ± 0.59	1475.4 ± 1.5
m1 = 0.2574	1013.28 ± 0.59	1003.91 ± 0.58	999.223 ± 0.58	994.536 ± 0.58	985.152 ± 0.58	975.753 ± 0.58	966.326 ± 0.59	1477.5 ± 1.5
m1 = 0.284	1019.22 ± 0.6	1009.86 ± 0.59	1005.18 ± 0.58	1000.5 ± 0.58	991.143 ± 0.58	981.766 ± 0.58	972.371 ± 0.58	1479.7 ± 1.5
